# According to US20140350119A1, “OPHTHALMIC COMPOSITION COMPRISING GERANYLGERANYLACETONE” (ROHTO PHARMACEUTICAL CO., LTD., priority 2012, published 2014):
# Key:
# [1] = system: rat models with glaucoma induced by NMDA; assay: Protective effect for retinal ganglion cells against nerve damage by NMDA (thickness of inner plexiform layer); format: in vivo, Sprague-Dawley (SD) rats; conditions: once per day
# Description: In recent years the glutamate analogue NMDA (N-methyl-D-aspartate) has been widely reported to be one of causative agents of neurodegenerative diseases including Alzheimer's disease. In the ophthalmic field, NMDA is considered to be involved in optic nerve damage in glaucoma (Brain Research Bulletin, 81 (2010) 349-358). Accordingly, in this experiment rat models with glaucoma induced by NMDA were used to evaluate the neuroprotective effect of GGA.
# To Sprague-Dawley (SD) rats, the all-trans form, the 5Z-mono-cis form and teprenone were separately pre-administered by oral administration (Test Example 1), intravitreal administration (Test Example 2) or ocular instillation administration (Test Example 3) and 5 μL of NMDA was administered into the vitreous body to induce nerve damage. For Test Example 2, a marketed therapeutic eye drop for glaucoma, AIPHAGAN (trade name), was intravitreally administered as a positive control once a day for five days. For each of Test Examples, a base not containing GGA or AIPHAGAN was administered as a control in the same manner as described above.
# The dosage and regimen of Test Examples 1 to 3 are shown in Table 1 and the constitution of the base used in each tests are shown in Table 2.
# Three days after administration of NMDA, the eyeballs were harvested, fixed with half Karnovsky's fixative for 24 hours, embedded in paraffin, thin sectioned and stained with hematoxylin-eosin (HE) to prepare histopathological sections. The histological sections were observed under an optical microscope and the thickness (μm) of the inner plexiform layer (IPL) of the retina was measured. From the thickness of the inner plexiform layer (IPL) of the retina, the neuroprotective effects of the test preparations were evaluated.
# PC12 = assay: Protective effect against ischemic cell death induced by hypoxia and low glucose (cell viability, Cell Titer-Glo); format: cell-based, rat; conditions: 30 μM, 2 h, then low glucose, zero percent O2, 8 h, FIG. 1, Tukey-Kramer test
# Description: The progress of visual impairment in glaucoma is associated with retinal ganglion cell (RGC) death due to blood flow failure occurring near the optic nerve (Folia Pharmacol. Jpn. 128, 255-258 (2006)). With the use of PC12, which is a typical neural cell line established from rat adrenal […] pheochromocytoma and used also as a model cell for the functional evaluation of RGC (J Neurosci Res. 2000 May 15; 60(4): 495-503.), the cytoprotective effect of GGA against ischemic cell death induced by hypoxia and low glucose was evaluated.
# Test samples were prepared as follows. The test substances were four types of GGAs that contain the all-trans form and the 5Z-mono-cis form at a weight ratio of 10:0, 8:2, 6:4, and 0:10, respectively. […]
# After 8 hours of incubation, 100 μL of an equivalent mixture of a cell viability detection reagent Cell Titer-Glo (Promega) and PBS was added to each well and the luminescence produced by the reaction with ATP in living cells was measured with a luminometer (GloMax; Promega). The cell viability was calculated from the measured luminescence by the following formula and the cytoprotective effect of GGA against […] was examined.
# Cell viability (%)=100×[(luminescence of base- or GGA-treated group)/(luminescence of non-treated group)]
# glaucoma rat model = conditions: intraperitoneal administration; Non Patent Literature 2; cited from earlier work
# [2] = system: mouse with retinal injury induced by ischemia; conditions: oral administration; Non Patent Literature 4; cited from earlier work
# [3] = system: mouse with visual cell damage induced by light irradiation; conditions: oral administration; Non Patent Literature 3; cited from earlier work
# [4] = system: multiple sclerosis mouse model; conditions: oral administration; Non Patent Literature 5; cited from earlier work
# [5] = system: retinal detachment-induced animal; conditions: intraperitoneal administration; Non Patent Literature 1; cited from earlier work
# [6] = Test Example 1: oral, 800 mg/kg, 2 days, NMDA 4 mM, FIG. 6
Compound,"Neuroprotective effect against nerve damage by NMDA compared with the base (IPL thickness) [1, 6]","Neuroprotective effect against nerve damage by NMDA compared with the base (IPL thickness) ([1]; Test Example 2: intravitreal, 0.05% w/v, 5 days, NMDA 40 mM, FIG. 7)",Cytoprotective effect compared with GGA of weight ratio 6:4 (PC12),Expression of heat shock protein 72 (glaucoma rat model),Optic nerve damage (glaucoma rat model),Retinal ganglion cell death (glaucoma rat model),Number of surviving retinal neurons [2],Thioredoxin and heat shock protein 72 in the retinal pigment epithelium [3],Cell loss in the ganglion [4],Number of degenerating axons in the optic nerve [4],Visual function [4],Apoptosis of visual cells [5],Expression of heat shock protein 70 [5]
"CC(=O)CC/C=C(/C)CC/C=C(\C)CC/C=C(\C)CCC=C(C)C [5Z-mono-cis form, (5Z,9E,13E)-6,10,14,18-tetramethyl-5,9,13,17-nonadecatetrae n-2-one]",significant neuroprotective effects,significant neuroprotective effects,significantly higher cytoprotective effects,–,–,–,–,–,–,–,–,–,–
teprenone,did not show a significant neuroprotective effect,–,–,induced the expression of heat shock protein 72,ameliorated optic nerve damage,reduced retinal ganglion cell death,significantly increased,induced thioredoxin and heat shock protein 72,prevented cell loss,reduced the number of degenerating axons,improved the visual function,reduced the apoptosis of visual cells significantly,induced the expression of heat shock protein 70
